Patent US20140243194A1, “Fungicidal substituted 1--1H-[1,2,4]triazole compounds” (BASF SE, priority 2011, published 2014)

Assays:
[1] = tested on: Septoria tritici; assay: Preventative control of leaf blotch on wheat caused by Septoria tritici (Septtr P7); format: in vivo; conditions: 16 ppm spray, wheat inoculated seven days later
Method: The spray solutions were prepared in several steps: The stock solution were prepared: a mixture of acetone and/or dimethylsulfoxide and the wetting agent/emulsifier Wettol, which is based on ethoxylated alkylphenoles, in a relation (volume) solvent-emulsifier of 99 to 1 was added to 25 mg of the compound to give a total of 5 ml. Water was then added to total volume of 100 ml. This stock solution was diluted with the described solvent-emulsifier-water mixture to the given concentration. G2. Preventative Control of Leaf Blotch on Wheat Caused by Septoria tritici (Septtr P7) Leaves of pot-grown wheat seedling were sprayed to run-off with an aqueous suspension of the active compound or their mixture, prepared as described. The plants were allowed to air-dry. Seven days later the plants were inoculated with an aqueous spore suspension of Septoria tritici. Then the trial plants were immediately transferred to a humid chamber at 18-22° C. and a relative humidity close to 100%. After 4 days the plants were transferred to a chamber with 18-22° C. and a relative humidity close to 70%. After 4 weeks the extent of fungal attack on the leaves was visually assessed as % diseased leaf area. […]

[2] = tested on: Phakopsora pachyrhizi; assay: Protective control of soy bean rust on soy beans caused by Phakopsora pachyrhizi (Phakpa P2); format: in vivo; conditions: 250 ppm spray; soy bean inoculated 2 days later; untreated control 90
Method: The spray solutions were prepared in several steps:
The stock solution were prepared: a mixture of acetone and/or dimethylsulfoxide and the wetting agent/emulsifier Wettol, which is based on ethoxylated alkylphenoles, in a relation (volume) solvent-emulsifier of 99 to 1 was added to 25 mg of the compound to give a total of 5 ml. Water was then added to total volume of 100 ml. This stock solution was diluted with the described solvent-emulsifier-water mixture to the given concentration.
G3 Protective Control of Soy Bean Rust on Soy Beans Caused by Phakopsora pachyrhizi (Phakpa P2)
Leaves of pot-grown soy bean seedlings were sprayed to run-off with an aqueous suspension, containing the concentration of active ingredient or their mixture as described below. The plants were allowed to air-dry. The trial plants were cultivated for 2 days in a greenhouse chamber at 23-27° C. and a relative humidity between 60 and 80%. Then the plants were inoculated with spores of Phakopsora pachyrhizi. To ensure the success the artificial inoculation, the plants were transferred to a humid chamber with a relative humidity of about 95% and 20 to 24° C. for 24 h. The trial plants were cultivated for fourteen days in a greenhouse chamber at 23-27° C. and a relative humidity between 60 and 80%. The extent of fungal attack on the leaves was visually assessed as % diseased leaf area.

[3] = tested on: Septoria tritici; assay: Curative control of leaf blotch on wheat caused by Septoria tritici (Septtr K7); format: in vivo; conditions: 250 ppm spray seven days after inoculation (curative), untreated control 90
Method: The spray solutions were prepared in several steps: The stock solution were prepared: a mixture of acetone and/or dimethylsulfoxide and the wetting agent/emulsifier Wettol, which is based on ethoxylated alkylphenoles, in a relation (volume) solvent-emulsifier of 99 to 1 was added to 25 mg of the compound to give a total of 5 ml. Water was then added to total volume of 100 ml. This stock solution was diluted with the described solvent-emulsifier-water mixture to the given concentration. G2 Curative Control of Leaf Blotch on Wheat Caused by Septoria tritici (Septtr K7) Leaves of pot-grown wheat seedling were inoculated with an aqueous spore suspension of Septoria tritici. Then the trial plants were immediately transferred to a humid chamber at 18-22° C. and a relative humidity close to 100%. After 4 days the plants were transferred to a chamber with 18-22° C. and a relative humidity close to 70%. Seven days after inoculation the plants were sprayed to run-off with an aqueous suspension of the active compound or their mixture, prepared as described. Then the plants were transferred back to the chamber with 18-22° C. and a relative humidity close to 70%. After 4 weeks the extent of fungal attack on the leaves was visually assessed as % diseased leaf area.

[4] = tested on: Botrytis cinerea; assay: Long lasting control of Botrytis cinerea on leaves of green pepper (Botrci P7); format: in vivo; conditions: 63 ppm spray; green pepper inoculated 7 days later; untreated control 100
Method: The spray solutions were prepared in several steps: The stock solution were prepared: a mixture of acetone and/or dimethylsulfoxide and the wetting agent/emulsifier Wettol, which is based on ethoxylated alkylphenoles, in a relation (volume) solvent-emulsifier of 99 to 1 was added to 25 mg of the compound to give a total of 5 ml. Water was then added to total volume of 100 ml. This stock solution was diluted with the described solvent-emulsifier-water mixture to the given concentration. G4 Long Lasting Control of Botrytis cinerea on Leaves of Green Pepper (Botrci P7) Young seedlings of green pepper were grown in pots to the 4 to 5 leaf stage. These plants were sprayed to run-off with an aqueous suspension, containing the concentration of active ingredient or their mixture mentioned in the table below. The plants were then cultivated in the greenhouse for 7 days and then inoculated with a aqueous biomalt solution containig the spore suspension of Botrytis cinerea. Then the plants were immediately transferred to a humid chamber. After 5 days at 22 to 24° C. and a relative humidity close to 100% the extent of fungal attack on the leaves was visually assessed as % diseased leaf area.

[5] = tested on: Botrytis cinerea; assay: Preventative fungicidal control of Botrytis cinerea on leaves of green pepper (Botrci P1); format: in vivo; conditions: 150 ppm spray; green pepper inoculated next day; % diseased leaf area after 5 days; untreated control 100
Method: The spray solutions were prepared in several steps: The stock solution were prepared: a mixture of acetone and/or dimethylsulfoxide and the wetting agent/emulsifier Wettol, which is based on ethoxylated alkylphenoles, in a relation (volume) solvent-emulsifier of 99 to 1 was added to 25 mg of the compound to give a total of 5 ml. Water was then added to total volume of 100 ml. This stock solution was diluted with the described solvent-emulsifier-water mixture to the given concentration. G1 Preventative Fungicidal Control of Botrytis cinerea on Leaves of Green Pepper (Botrci P1) Young seedlings of green pepper were grown in pots to the 4 to 5 leaf stage. These plants were sprayed to run-off with an aqueous suspension, containing the concentration of active ingredient or their mixture mentioned in the table below. The next day the plants were inoculated with a aqueous biomalt solution containig the spore suspension of Botrytis cinerea. Then the plants were immediately transferred to a humid chamber. After 5 days at 22 to 24° C. and a relative humidity close to 100% the extent of fungal attack on the leaves was visually assessed as % diseased leaf area.

[6] = tested on: Alternaria solani; assay: Microtest: activity against early blight caused by Alternaria solani (Alteso); format: cell-based; conditions: micro titer plate, 405 nm, 7 days after inoculation, relative growth vs compound-free control (100%)
Method: Microtest The active compounds were formulated separately as a stock solution having a concentration of 10000 ppm in dimethyl sulfoxide. M1: Activity Against Early Blight Caused by Alternaria solani (Alteso) The stock solutions were mixed according to the ratio, pipetted onto a micro titer plate (MTP) and diluted with water to the stated concentrations. A spore suspension of Alternaria solani in an aqueous biomalt or yeast-bactopeptone-glycerine solution was then added. The plates were placed in a water vapor-saturated chamber at a temperature of 17° C. Using an absorption photometer, the MTPs were measured at 405 nm 7 days after the inoculation. The measured parameters were compared to the growth of the active compound-free control variant (100%) and the fungus-free and active compound-free blank value to determine the relative growth in % of the pathogens in the respective active compounds.

[7] = tested on: Puccinia recondita; assay: Preventative control of brown rust on wheat caused by Puccinia recondita (Puccrt P7); format: in vivo; conditions: 250 ppm spray; wheat inoculated seven days later; untreated plants 90% infected
Method: The spray solutions were prepared in several steps: The stock solution were prepared: a mixture of acetone and/or dimethylsulfoxide and the wetting agent/emulsifier Wettol, which is based on ethoxylated alkylphenoles, in a relation (volume) solvent-emulsifier of 99 to 1 was added to 25 mg of the compound to give a total of 5 ml. Water was then added to total volume of 100 ml. This stock solution was diluted with the described solvent-emulsifier-water mixture to the given concentration. G3. Preventative Control of Brown Rust on Wheat Caused by Puccinia recondita (Puccrt P7) The first two developed leaves of pot-grown wheat seedling were sprayed to run-off with an aqueous suspension, containing the concentration of active ingredient or their mixture as described below. Seven days later the plants were inoculated with spores of Puccinia recondita. To ensure the success the artificial inoculation, the plants were transferred to a humid chamber without light and a relative humidity of 95 to 99% and 20 to 24° C. for 24 h. Then the trial plants were cultivated for 6 days in a greenhouse chamber at 20-24° C. and a relative humidity between 65 and 70%. The extent of fungal attack on the leaves was visually assessed as % diseased leaf area.

| SMILES | Disease (%) at 16 ppm Septtr P7 ([1]; % diseased leaf area after 4 weeks, untreated control 90) | Disease (%) at 16 ppm Septtr P7 ([1]; section C table) | Disease (%) at 250 ppm Phakpa P2 [2] | Disease (%) at 250 ppm Septtr K7 [3] | Disease (%) at 63 ppm Botrci p7 [4] | Disease (%) at 150 ppm Botrci P1 [5] | Growth (%) at 0.008 ppm Alteso [6] | infection (% diseased leaf area) Puccrt P7 [7] |
| --- | --- | --- | --- | --- | --- | --- | --- | --- |
| C#CCOC(Cn1cncn1)c1ccc(Oc2ccc(Cl)cc2)cc1Cl (centres unmarked) [DE 3801223 table 1, compound 30] | 60% | 60% | 70% | 40% | 80% | 60% | 48% | – |
| C#CCOC(Cn1cncn1)(c1ccc(Oc2ccc(Cl)cc2)cc1Cl)C(C)C (centres unmarked) [I-4, 1-[2-[2-chloro-4-(4-chlorophenoxy)phenyl]-3-methyl-2-prop-2-ynoxy-butyl]-1,2,4-triazole] | – | – | – | – | – | – | – | 0% |
